Measurements taken from patent US20240382490A1, “QUINAZOLINE-THIOHYDANTOIN FUSED HETEROCYCLES WHICH ARE SUITABLE FOR TREATING, AMELIORATING OR PREVENTING A PROLIFERATIVE DISORDER” (FRIEDRICH-ALEXANDER-UNIVERSITÄT ERLANGEN NÜRNBERG, priority 2021, published 2024).
Read-outs that look alike come from different tables or passages of the source.

What was measured:
wild-type CCRF CEM cells [1] = conditions: sensitive wild-type CCRF CEM cells; previously reported (NPL-9, NPL-10), footnote calls them EC50; cited from earlier work
[2] = tested on: multidrug resistant P glycoprotein-overexpressing CEM/ADR5000 cells; conditions: previously reported (NPL-9, NPL-10), footnote calls them EC50; cited from earlier work
human endometrium cells = conditions: NPL-12, read-out: Healthy cells IC50 (human endometrium cells); cited from earlier work
[3] = tested on: multidrug resistant P glycoprotein-overexpressing CEM/ADR5000 cells; experiment: IC50 in multidrug resistant CEM/ADR5000 leukemia cells; format: cell-based, human
healthy human cells = experiment: IC50 in healthy cells (selectivity); format: cell-based; conditions: for IC50: healthy human cells; for Activity against healthy cells relative to CEM/ADR5000 cells: healthy cells IC50 compared with CEM/ADR5000 IC50
wild-type CCRF CEM cells [4] = experiment: IC50 in sensitive wild-type CCRF CEM leukemia cells; format: cell-based, human
MRTF-A = MRTF-A nuclear localization in HAP1 cells; format: cell-based; conditions: human leukemia cell line HAP1, FIG. 4
Protocol: (§1) Quinazoline-thiohydantoin fused heterocycles 5g and 5k were to tested to determine whether they can inhibit MRTF-A nuclear localization to overcome resistance. First the localization of MRTF-A in a human leukemia cell line (HAP1) was analyzed. […] It was also tested whether 5g can activate cellular senescence.

K562 cells = experiment: CellTiter-Blue cell viability assay, K562; format: cell-based; conditions: for IC50: five dose (0.01, 0.1, 1, 10, 100 μM) screening, 48 h treatment
Protocol: (§2) All leukemia cell lines (RPMI-8226, K562, HL-60, and MOLT-4) were obtained from NCI-DTP, NCI-Frederick, USA. Cells were cultured and maintained in RPMI-1640 (Corning, USA; #10-040-CV) media supplemented with 10% FBS (Corning, USA; #35-015-CV) and 1% penicillin-streptomycin-amphotericin B (GIBCO, USA; #15240-062) at 37° C. with 5% CO2. At 70 to 80% confluence cells were harvested and plated for cell viability assay.
(§3) Each leukemia cell line was plated at 3000 cells/well (in 100 μL complete media) in black-clear bottom 96-well plates (Corning, USA; #3603). After 24 h, cells were treated with respective compounds at one dose (10 μM) or five dose (0.01, 0.1, 1, 10, 100 μM) concentrations. After 48 h treatment, cell viability was recorded using CellTiter-Blue cell viability assay (Promega, USA; #G8081) as per the manufacturer's protocol.

[5] = tested on: human leukemia cell line (HAP1); experiment: Cellular senescence in HAP1 cells; format: cell-based; conditions: mediated by oncogene Ras and downstream MAPK/pRb pathways, FIG. 4
Protocol: as §1

MOLT-4 cells = experiment: CellTiter-Blue cell viability assay, MOLT-4; format: cell-based; conditions: five dose (0.01, 0.1, 1, 10, 100 μM) screening, 48 h treatment
Protocol: as §2, §3

HL-60 cells = experiment: CellTiter-Blue cell viability assay, HL-60; format: cell-based; conditions: for IC50: five dose (0.01, 0.1, 1, 10, 100 μM) screening, 48 h treatment
Protocol: as §2, §3

RPMI-8226 cells = experiment: CellTiter-Blue cell viability assay, RPMI-8226; format: cell-based; conditions: five dose (0.01, 0.1, 1, 10, 100 μM) screening, 48 h treatment
Protocol: as §2, §3

human fibroblasts = conditions: normal tissue cell line (human fibroblasts), NPL-11; read-out: Healthy cells IC50 (overall IC50 in human fibroblasts); cited from earlier work
[6] = one dose (10 μM), 48 h, FIG. 5A

SMILES | IC50 [3] | IC50 (healthy human cells) | IC50 (wild-type CCRF CEM cells [4]) | also measured
C[C@@H]1CC[C@H]2[C@@H](C)C(=O)O[C@@H]3O[C@@]4(C)CC[C@@H]1[C@]32OO4 [Artemisinin, artemisinin] |  |  |  | IC50 (wild-type CCRF CEM cells [1]): 36.9 ± 6.9 µM; IC50 [2]: 26.9 ± 4.4 µM; IC50 (human endometrium cells): 69.6 µM
O=C1C2=Nc3ccccc3CN2C(=S)N1c1ccc([N+](=O)[O-])cc1 [Compound 3a] | 26.8 ± 1.67 µM | 19.8 ± 4.8 µM | 27.8 ± 2.6 µM | 
COc1cccc(N2C(=O)C3=Nc4ccccc4CN3C2=S)c1 [Compound 3j] | 28.1 ± 0.972 µM | 42.8 ± 6.1 µM | 28.1 ± 0.831 µM | 
CC(C)c1cccc(C(C)C)c1N1C(=O)C2=Nc3ccccc3CN2C1=S [Compound 3l] | 19.1 ± 7.1 µM | 30.5 ± 0.5 µM | 25.1 ± 6.49 µM | 
CC(c1ccccc1)N1C(=O)C2=Nc3ccc(Br)cc3CN2C1=S (stereo not drawn) [Compound 5a] | 0.409 ± 0.028 µM | 2.2 ± 0.2 µM | 0.483 ± 0.025 µM | 
C[C@H](c1ccccc1)N1C(=O)C2=Nc3cc([N+](=O)[O-])ccc3CN2C1=S [Compound 5d] | 0.127 ± 0.019 µM | 2.5 ± 0.8 µM | 0.14 ± 0.028 µM | Activity against healthy cells relative to CEM/ADR5000 cells (healthy human cells): fifteen to twenty times lower activity
CC(c1ccccc1)N1C(=O)C2=Nc3ccc(Cl)cc3CN2C1=S (stereo not drawn) [Compound 5e] | 0.295 ± 0.083 µM | 2.4 ± 0.5 µM | 0.375 ± 0.043 µM | 
CC(c1ccccc1)N1C(=O)C2=Nc3cc(Cl)ccc3CN2C1=S (stereo not drawn) [Compound 5f] | 0.156 ± 0.013 µM | 2.3 ± 0.7 µM | 0.228 ± 0.022 µM | Activity against healthy cells relative to CEM/ADR5000 cells (healthy human cells): fifteen to twenty times lower activity
CC(c1ccccc1)N1C(=O)C2=Nc3cccc(Cl)c3CN2C1=S (stereo not drawn) [Compound 5g] | 0.146 ± 0.015 µM | 2.8 ± 0.6 µM | 0.125 ± 0.024 µM | Effect on MRTF-A nuclear localization (MRTF-A): efficiently increased cytoplasmic MRTF-A nuclear localization; IC50 (K562 cells): 7.8 ± 0.63 µM; One dose cell viability screening, K562 (K562 cells; [6]): more active compared to 5k; Activity against healthy cells relative to CEM/ADR5000 cells (healthy human cells): fifteen to twenty times lower activity; Activation of cellular senescence [5]: able to provoke a senescence response; IC50 (MOLT-4 cells): 18.5 ± 2.17 µM; IC50 (HL-60 cells): 9.9 ± 0.71 µM; One dose cell viability screening, HL-60 (HL-60 cells; [6]): more active compared to 5k; IC50 (RPMI-8226 cells): 15 ± 1.39 µM
COc1ccc2c(c1)CN1C(=S)N(C(C)c3ccccc3)C(=O)C1=N2 (stereo not drawn) [Compound 5k] | 1.33 ± 0.247 µM | 1.9 ± 0.4 µM | 1.53 ± 0.148 µM | IC50 (K562 cells): 24.7 ± 4.01 µM; IC50 (MOLT-4 cells): 28.7 ± 2.08 µM; IC50 (HL-60 cells): 41.1 ± 3.12 µM; IC50 (RPMI-8226 cells): 14 ± 2.43 µM
COc1cccc2c1C(=O)c1c(O)c3c(c(O)c1C2=O)C[C@@](O)(C(=O)CO)C[C@@H]3O[C@H]1C[C@H](N)[C@H](O)[C@H](C)O1 [Doxorubicin, doxorubicin] |  |  |  | IC50 (human fibroblasts): 1.8 µM; IC50 (wild-type CCRF CEM cells [1]): 0.009 µM; IC50 [2]: 23.3 µM
